Measurements reported in DBAASP.
Values after ≈ are worked out from the molar mass of the structure shown. Each block holds one compound with its values, some of them ahead of it.

What was measured:
Test in all cases: ≥ marks a high value that may be exact or a test limit, other limits are often not marked, values filed in µg/mL are converted to µM
[1] = tested on: Staphylococcus aureus ATCC 6538
[2] = tested on: Pseudomonas aeruginosa ATCC 9027
[3] = tested on: Bacillus cereus
[4] = tested on: Escherichia coli
[5] = tested on: Staphylococcus aureus
[6] = tested on: Staphylococcus aureus ATCC 25923
[7] = tested on: Pseudomonas aeruginosa ATCC 27853
[8] = tested on: Klebsiella pneumoniae
[9] = tested on: Salmonella enterica subsp. enterica serovar Typhimurium ATCC 14028
[10] = tested on: Escherichia coli ATCC 25922
[11] = tested on: Bacillus subtilis
[12] = tested on: Candida albicans ATCC 90028
[13] = tested on: Staphylococcus aureus ATCC 29213
[14] = tested on: Candida albicans ATCC 2002
[15] = tested on: Enterococcus faecalis ATCC 29212

- MIC [11]: 1.22 µM (≈ 2.2 µg/mL)
- MIC [4]: 39.1 µM (≈ 70.8 µg/mL)
- MIC [5]: 0.663 µM (≈ 1.2 µg/mL)
Compound: CC[C@H](C)[C@H](NC(=O)[C@H](CC(C)C)NC(=O)[C@H](C)NC(=O)[C@H](CC(C)C)NC(=O)[C@H](CC(C)C)NC(=O)CN)C(=O)N[C@@H](CO)C(=O)N[C@@H](Cc1c[nH]c2ccccc12)C(=O)N[C@H](C(=O)N[C@@H](CCCCN)C(=O)N[C@@H](CCCN=C(N)N)C(=O)N[C@@H](CCCCN)C(=O)N[C@@H](CCCN=C(N)N)C(=O)N[C@@H](CCC(N)=O)C(=O)N[C@@H](CCC(N)=O)C(N)=O)[C@@H](C)CC [GLLALISWIKRKRQQ]

- MIC [11]: 0.352 µM (≈ 0.64 µg/mL)
- MIC [4]: 44.9 µM (≈ 81.7 µg/mL)
- MIC [5]: 0.769 µM (≈ 1.4 µg/mL)
Compound: CC[C@H](C)[C@H](NC(=O)[C@H](CC(C)C)NC(=O)[C@H](C)NC(=O)[C@@H]1CCCN1C(=O)[C@H](CC(C)C)NC(=O)CN)C(=O)N[C@@H](CC(C)C)C(=O)N[C@@H](Cc1c[nH]c2ccccc12)C(=O)N[C@H](C(=O)N[C@@H](CCCCN)C(=O)N[C@@H](CCCN=C(N)N)C(=O)N[C@@H](CCCCN)C(=O)N[C@@H](CCCN=C(N)N)C(=O)N[C@@H](CCC(N)=O)C(=O)N[C@@H](CCC(N)=O)C(N)=O)[C@@H](C)CC [GLPALILWIKRKRQQ]

- MIC [11]: ≥ 100 µM
- MIC [4]: > 100 µM
Compound: CC[C@H](C)[C@H](N)C(=O)N[C@@H](CC(N)=O)C(=O)N[C@@H](CO)C(=O)N[C@@H](CC(C)C)C(=O)N[C@@H](CCCCN)C(=O)N[C@@H](CC(C)C)C(=O)NCC(=O)N[C@@H](CCCCN)C(=O)N[C@@H](CCCCN)C(=O)N[C@H](C(=O)N[C@@H](CC(C)C)C(=O)NCC(=O)N[C@@H](C)C(=O)N[C@@H](CC(C)C)C(N)=O)[C@@H](C)CC [INSLKLGKKILGAL]

- MIC [12]: ≥ 40 µM
- MIC [7]: 40 µM (≈ 59.5 µg/mL)
- MIC [10]: 40 µM (≈ 59.5 µg/mL)
- MIC [13]: 40 µM (≈ 59.5 µg/mL)
Compound: CC[C@H](C)[C@H](NC(=O)[C@H](C)NC(=O)[C@@H](N)CCCCN)C(=O)N[C@H](C(=O)N[C@@H](CCC(N)=O)C(=O)N[C@@H](CCCN=C(N)N)C(=O)N[C@H](C(=O)N[C@@H](CCCCN)C(=O)N[C@@H](CC(=O)O)C(=O)N[C@@H](Cc1ccccc1)C(=O)N[C@@H](CC(C)C)C(=O)N[C@@H](CCCN=C(N)N)C(=O)O)[C@@H](C)CC)C(C)C [KAIVQRIKDFLR]

- MIC [12]: ≥ 40 µM
- MIC [7]: 40 µM (≈ 61.2 µg/mL)
- MIC [10]: 40 µM (≈ 61.2 µg/mL)
- MIC [13]: 40 µM (≈ 61.2 µg/mL)
Compound: CC[C@H](C)[C@H](NC(=O)[C@H](CCCN=C(N)N)NC(=O)[C@@H](N)CCCCN)C(=O)N[C@H](C(=O)N[C@@H](CCC(N)=O)C(=O)N[C@@H](CCCN=C(N)N)C(=O)N[C@@H](C)C(=O)N[C@@H](CCCCN)C(=O)N[C@@H](CC(=O)O)C(=O)N[C@@H](Cc1ccccc1)C(=O)N[C@@H](CC(C)C)C(=O)N[C@@H](CCCN=C(N)N)C(=O)O)C(C)C [KRIVQRAKDFLR]

- MIC [6]: 2.41 µM (≈ 7.03 µg/mL)
- MIC [14]: 0.201 µM (≈ 0.586 µg/mL)
- MIC [11]: 1.61 µM (≈ 4.69 µg/mL)
- MIC [10]: 0.803 µM (≈ 2.34 µg/mL)
Compound: CC[C@H](C)[C@H](NC(=O)[C@H](C)NC(=O)[C@H](CCCN=C(N)N)NC(=O)[C@H](Cc1ccc(O)cc1)NC(=O)[C@H](CC(C)C)NC(=O)[C@H](CC(N)=O)NC(=O)[C@H](Cc1ccc(O)cc1)NC(=O)CNC(=O)[C@H](C)NC(=O)[C@@H](NC(=O)[C@@H](NC(=O)[C@@H](NC(=O)[C@H](CCCN=C(N)N)NC(=O)[C@@H](NC(=O)[C@@H](NC(=O)[C@@H](NC(=O)[C@@H]1CCCN1C(=O)[C@H](Cc1c[nH]c2ccccc12)NC(=O)[C@H](Cc1ccccc1)NC(=O)[C@H](CCCN=C(N)N)NC(=O)[C@H](CCCCN)NC(=O)[C@@H](NC(=O)[C@@H](N)CCCN=C(N)N)[C@@H](C)CC)C(C)C)C(C)C)[C@@H](C)CC)[C@@H](C)O)C(C)C)C(C)C)C(=O)N[C@@H](CCCCN)C(=O)O [RIKRFWPVVIRTVVAGYNLYRAIK]

- MIC [1]: 2.77 µM (≈ 5 µg/mL)
- MIC [2]: 8.3 µM (≈ 15 µg/mL)
Compound: CC(C)C[C@H](NC(=O)[C@H](C)NC(=O)[C@H](CC(C)C)NC(=O)[C@H](CCCCN)NC(=O)[C@H](C)NC(=O)[C@H](CC(C)C)NC(=O)[C@H](CCCCN)NC(=O)[C@H](CCCCN)NC(=O)[C@H](C)NC(=O)[C@H](CC(C)C)NC(=O)[C@H](CCCCN)NC(=O)[C@H](C)NC(=O)[C@H](CC(C)C)NC(=O)[C@H](CCCCN)NC(=O)[C@H](CCCCN)NC(=O)[C@H](C)NC(=O)[C@@H](N)C(C)C)C(N)=O [VAKKLAKLAKKLAKLAL]

- MIC [7]: 2.11 µM (≈ 3.39 µg/mL)
- MIC [15]: 2.98 µM (≈ 4.8 µg/mL)
- MIC [10]: 0.746 µM (≈ 1.2 µg/mL)
- MIC [13]: 1.49 µM (≈ 2.4 µg/mL)
Compound: CC[C@H](C)[C@H](NC(=O)[C@H](CCCCN)NC(=O)[C@H](CCCCN)NC(=O)[C@H](Cc1ccccc1)NC(=O)[C@H](CC(C)C)NC(=O)[C@H](CCCCN)NC(=O)[C@H](CCCCN)NC(=O)[C@@H](N)Cc1c[nH]c2ccccc12)C(=O)N[C@@H](CC(C)C)C(=O)N[C@@H](CCCCN)C(=O)N[C@@H](Cc1ccc(O)cc1)C(=O)N[C@@H](CC(C)C)C(N)=O [WKKLFKKILKYL]

Continued, compound first:

Compound: CC(C)C[C@H](NC(=O)[C@H](CCCCN)NC(=O)[C@H](CCCCN)NC(=O)[C@H](CC(C)C)NC(=O)[C@H](C)NC(=O)[C@H](CCCCN)NC(=O)[C@H](CC(C)C)NC(=O)[C@H](C)NC(=O)[C@H](CCCCN)NC(=O)[C@H](CCCCN)NC(=O)[C@H](C)NC(=O)[C@@H](N)Cc1ccccc1)C(N)=O [FAKKALKALKKL]
- MIC [1]: 147 µM (≈ 200 µg/mL)
- MIC [2]: 73.6 µM (≈ 99.9 µg/mL)

Compound: CC(C)C[C@H](NC(=O)[C@H](CC(C)C)NC(=O)[C@H](C)NC(=O)[C@H](CCCCN)NC(=O)[C@H](C)NC(=O)[C@H](CC(C)C)NC(=O)[C@H](CCCCN)NC(=O)[C@H](CCCCN)NC(=O)[C@H](C)NC(=O)[C@@H](N)Cc1ccccc1)C(N)=O [FAKKLAKALL]
- MIC [1]: 90.7 µM (≈ 99.9 µg/mL)
- MIC [2]: 90.7 µM (≈ 99.9 µg/mL)

Compound: CC(C)C[C@H](NC(=O)[C@H](CCCCN)NC(=O)[C@H](C)NC(=O)[C@H](CC(C)C)NC(=O)[C@H](CCCCN)NC(=O)[C@H](CC(C)C)NC(=O)[C@H](C)NC(=O)[C@H](CC(C)C)NC(=O)[C@H](CCCCN)NC(=O)[C@H](C)NC(=O)[C@H](CC(C)C)NC(=O)[C@H](CCCCN)NC(=O)[C@H](CCCCN)NC(=O)[C@H](C)NC(=O)[C@@H](N)Cc1ccccc1)C(N)=O [FAKKLAKLALKLAKL]
- MIC [1]: 3.02 µM (≈ 5 µg/mL)
- MIC [2]: 3.02 µM (≈ 5 µg/mL)

Compound: CC(C)C[C@H](NC(=O)[C@H](C)NC(=O)[C@H](CCCCN)NC(=O)[C@H](CCCCN)NC(=O)[C@H](C)NC(=O)[C@H](CC(C)C)NC(=O)[C@H](CCCCN)NC(=O)[C@H](C)NC(=O)[C@H](CC(C)C)NC(=O)[C@H](CC(C)C)NC(=O)[C@H](CCCCN)NC(=O)[C@H](C)NC(=O)[C@@H](N)Cc1ccccc1)C(N)=O [FAKLLAKLAKKAL]
- MIC [1]: 3.53 µM (≈ 5 µg/mL)
- MIC [2]: 35.3 µM (≈ 50 µg/mL)

Compound: CC(C)C[C@H](NC(=O)[C@H](CCCCN)NC(=O)[C@H](CC(C)C)NC(=O)[C@H](CCCCN)NC(=O)[C@H](CC(C)C)NC(=O)[C@H](C)NC(=O)[C@H](CC(C)C)NC(=O)[C@H](C)NC(=O)[C@H](CC(C)C)NC(=O)[C@H](CC(C)C)NC(=O)[C@H](CCCCN)NC(=O)[C@H](C)NC(=O)[C@@H](N)Cc1ccccc1)C(N)=O [FAKLLALALKLKL]
- MIC [1]: 6.94 µM (≈ 9.99 µg/mL)
- MIC [2]: > 139 µM

Compound: CC(C)C[C@H](NC(=O)[C@H](C)NC(=O)[C@H](CCCCN)NC(=O)[C@H](CCCCN)NC(=O)[C@H](CC(C)C)NC(=O)[C@H](C)NC(=O)[C@H](CCCCN)NC(=O)[C@H](CCCCN)NC(=O)[C@H](CC(C)C)NC(=O)[C@H](CCCCN)NC(=O)[C@H](CCCCN)NC(=O)[C@H](CC(C)C)NC(=O)[C@H](C)NC(=O)[C@H](CCCCN)NC(=O)[C@H](CCCCN)NC(=O)[C@H](CC(C)C)NC(=O)[C@H](C)NC(=O)[C@H](CCCCN)NC(=O)[C@H](CC(C)C)NC(=O)[C@H](C)NC(=O)[C@H](CC(C)C)NC(=O)[C@H](C)NC(=O)[C@@H](N)Cc1ccccc1)C(N)=O [FALALKALKKALKKLKKALKKAL]
- MIC [1]: 9.85 µM (≈ 25 µg/mL)
- MIC [2]: 39.4 µM (≈ 100 µg/mL)

Compound: CC(C)C[C@H](NC(=O)[C@H](CCCCN)NC(=O)[C@H](Cc1ccccc1)NC(=O)[C@@H](NC(=O)[C@@H](NC(=O)CNC(=O)[C@H](CC(C)C)NC(=O)[C@@H](N)Cc1ccccc1)C(C)C)C(C)C)C(=O)N[C@@H](C)C(=O)N[C@@H](CO)C(=O)N[C@@H](CCCCN)C(=O)N[C@H](C(=O)N[C@@H](Cc1ccccc1)C(=O)N1CCC[C@H]1C(=O)N[C@@H](C)C(=O)N[C@H](C(=O)N[C@@H](Cc1ccccc1)C(=O)NCC(=O)N[C@@H](CCCCN)C(=O)N[C@H](C(N)=O)C(C)C)C(C)C)C(C)C [FLGVVFKLASKVFPAVFGKV]
- MIC [3]: 7.43 µM (≈ 16 µg/mL)
- MIC [4]: 29.7 µM (≈ 64 µg/mL)
- MIC [5]: 1.86 µM (≈ 4 µg/mL)

Compound: CC[C@H](C)[C@H](NC(=O)CN)C(=O)NCC(=O)N[C@@H](CCCCN)C(=O)N[C@@H](Cc1cnc[nH]1)C(=O)N[C@H](C(=O)NCC(=O)N[C@@H](CCCCN)C(=O)N[C@@H](C)C(=O)N[C@@H](CC(C)C)C(=O)N[C@@H](CCCCN)C(=O)NCC(=O)N[C@@H](CC(C)C)C(=O)N[C@@H](CCCCN)C(=O)NCC(=O)N[C@@H](CC(C)C)C(=O)N[C@@H](CC(C)C)C(=O)N[C@@H](CCCCN)C(=O)NCC(=O)N[C@@H](CC(C)C)C(=O)NCC(=O)N[C@@H](CCC(=O)O)C(=O)N[C@@H](CS)C(=O)O)C(C)C [GIGKHVGKALKGLKGLLKGLGEC]
- MIC [6]: ≥ 128 µM
- MIC [7]: 2 µM (≈ 4.55 µg/mL)
- MIC [8]: 1 µM (≈ 2.28 µg/mL)
- MIC [9]: 1 µM (≈ 2.28 µg/mL)
- MIC [10]: 0.707 µM (≈ 1.61 µg/mL)
